US20250114345A1, “COMPOUNDS AND COMPOSITIONS AS CBP/P300 DEGRADERS AND USES THEREOF” (Oncopia Therapeutics, Inc. d/b/a/ SK Life Science Labs, priority 2023, published 2025)

Assays:
[1] = target: T1, p300 (Homo sapiens, UniProt Q09472); experiment: P300 degradation, HiBit technology in A549 P300 HiBit cells (2 h); type: cell-based; conditions: 2 hrs post treatment; for Dmax: A549, A549 P300 HiBit cells; for DC50 / P300 A549 2 h HiBit DMax (%): A549 P300 HiBit cells
T1 construct: host or cells: A549 P300 HiBit cells
Summary of the method: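 Endogenously HiBiT-tagged A549 cells are plated, left overnight, then treated with a compound dilution series at 37 °C and 5% CO2. At the set time, lytic detection buffer is added and plates are shaken 10 min at room temperature before luminescence is measured to derive potency and Dmax.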

[2] = target: T2, CBP (Homo sapiens, UniProt Q92793); experiment: CBP degradation, HiBit technology in A549 CBP HiBit cells (24 h); type: cell-based; conditions: 24 hrs post treatment
T2 construct: host or cells: A549 CBP HiBit cells
Protocol: p300 and CBP degradation potency and Dmax were determined using in cell western (ICW) assay technology in H1299 cells or HiBit technology in A549 HiBit cells.
A549 P300 HiBit and A549 CBP HiBit cells were plated in separate 384-well, TC treated, white-opaque, flat-bottomed microplate. Cells were plated at a cell density of 0.2×10^4 cells per well in assay media comprised of F-12K, 10% heat inactivated FBS, and 1% penicillin/streptomycin. Assay microplates containing HiBit cells were placed in a 37° C., 5% CO2, tissue culture incubator and left to equilibrate overnight. The next day cells were treated with serial dilutions of test compound made up of 10 mM stock solutions in DMSO. 384-Well plates containing treated cells were then placed back into a 37° C., 5% CO2, tissue culture incubator. Assay microplates containing A549 P300 HiBit cells were incubated for 2 hrs post treatment before P300 destruction was assessed, while microplates containing A549 CBP HiBit cells were incubated for 24 hrs post treatment before CBP destruction was determined. On the day of each assay time point, microplates were removed from the tissue culture incubator and prepared HiBit Lytic detection buffer (Promega, cat #N3O40) was added to each plate. Plates were covered with aluminum foil and incubated for ten minutes at room temperature on an orbital shaker. After incubation, luminescent signal of each plate was measured using the Envision instrument (Perkin Elmer).

T1 sequence (Q09472 whole entry): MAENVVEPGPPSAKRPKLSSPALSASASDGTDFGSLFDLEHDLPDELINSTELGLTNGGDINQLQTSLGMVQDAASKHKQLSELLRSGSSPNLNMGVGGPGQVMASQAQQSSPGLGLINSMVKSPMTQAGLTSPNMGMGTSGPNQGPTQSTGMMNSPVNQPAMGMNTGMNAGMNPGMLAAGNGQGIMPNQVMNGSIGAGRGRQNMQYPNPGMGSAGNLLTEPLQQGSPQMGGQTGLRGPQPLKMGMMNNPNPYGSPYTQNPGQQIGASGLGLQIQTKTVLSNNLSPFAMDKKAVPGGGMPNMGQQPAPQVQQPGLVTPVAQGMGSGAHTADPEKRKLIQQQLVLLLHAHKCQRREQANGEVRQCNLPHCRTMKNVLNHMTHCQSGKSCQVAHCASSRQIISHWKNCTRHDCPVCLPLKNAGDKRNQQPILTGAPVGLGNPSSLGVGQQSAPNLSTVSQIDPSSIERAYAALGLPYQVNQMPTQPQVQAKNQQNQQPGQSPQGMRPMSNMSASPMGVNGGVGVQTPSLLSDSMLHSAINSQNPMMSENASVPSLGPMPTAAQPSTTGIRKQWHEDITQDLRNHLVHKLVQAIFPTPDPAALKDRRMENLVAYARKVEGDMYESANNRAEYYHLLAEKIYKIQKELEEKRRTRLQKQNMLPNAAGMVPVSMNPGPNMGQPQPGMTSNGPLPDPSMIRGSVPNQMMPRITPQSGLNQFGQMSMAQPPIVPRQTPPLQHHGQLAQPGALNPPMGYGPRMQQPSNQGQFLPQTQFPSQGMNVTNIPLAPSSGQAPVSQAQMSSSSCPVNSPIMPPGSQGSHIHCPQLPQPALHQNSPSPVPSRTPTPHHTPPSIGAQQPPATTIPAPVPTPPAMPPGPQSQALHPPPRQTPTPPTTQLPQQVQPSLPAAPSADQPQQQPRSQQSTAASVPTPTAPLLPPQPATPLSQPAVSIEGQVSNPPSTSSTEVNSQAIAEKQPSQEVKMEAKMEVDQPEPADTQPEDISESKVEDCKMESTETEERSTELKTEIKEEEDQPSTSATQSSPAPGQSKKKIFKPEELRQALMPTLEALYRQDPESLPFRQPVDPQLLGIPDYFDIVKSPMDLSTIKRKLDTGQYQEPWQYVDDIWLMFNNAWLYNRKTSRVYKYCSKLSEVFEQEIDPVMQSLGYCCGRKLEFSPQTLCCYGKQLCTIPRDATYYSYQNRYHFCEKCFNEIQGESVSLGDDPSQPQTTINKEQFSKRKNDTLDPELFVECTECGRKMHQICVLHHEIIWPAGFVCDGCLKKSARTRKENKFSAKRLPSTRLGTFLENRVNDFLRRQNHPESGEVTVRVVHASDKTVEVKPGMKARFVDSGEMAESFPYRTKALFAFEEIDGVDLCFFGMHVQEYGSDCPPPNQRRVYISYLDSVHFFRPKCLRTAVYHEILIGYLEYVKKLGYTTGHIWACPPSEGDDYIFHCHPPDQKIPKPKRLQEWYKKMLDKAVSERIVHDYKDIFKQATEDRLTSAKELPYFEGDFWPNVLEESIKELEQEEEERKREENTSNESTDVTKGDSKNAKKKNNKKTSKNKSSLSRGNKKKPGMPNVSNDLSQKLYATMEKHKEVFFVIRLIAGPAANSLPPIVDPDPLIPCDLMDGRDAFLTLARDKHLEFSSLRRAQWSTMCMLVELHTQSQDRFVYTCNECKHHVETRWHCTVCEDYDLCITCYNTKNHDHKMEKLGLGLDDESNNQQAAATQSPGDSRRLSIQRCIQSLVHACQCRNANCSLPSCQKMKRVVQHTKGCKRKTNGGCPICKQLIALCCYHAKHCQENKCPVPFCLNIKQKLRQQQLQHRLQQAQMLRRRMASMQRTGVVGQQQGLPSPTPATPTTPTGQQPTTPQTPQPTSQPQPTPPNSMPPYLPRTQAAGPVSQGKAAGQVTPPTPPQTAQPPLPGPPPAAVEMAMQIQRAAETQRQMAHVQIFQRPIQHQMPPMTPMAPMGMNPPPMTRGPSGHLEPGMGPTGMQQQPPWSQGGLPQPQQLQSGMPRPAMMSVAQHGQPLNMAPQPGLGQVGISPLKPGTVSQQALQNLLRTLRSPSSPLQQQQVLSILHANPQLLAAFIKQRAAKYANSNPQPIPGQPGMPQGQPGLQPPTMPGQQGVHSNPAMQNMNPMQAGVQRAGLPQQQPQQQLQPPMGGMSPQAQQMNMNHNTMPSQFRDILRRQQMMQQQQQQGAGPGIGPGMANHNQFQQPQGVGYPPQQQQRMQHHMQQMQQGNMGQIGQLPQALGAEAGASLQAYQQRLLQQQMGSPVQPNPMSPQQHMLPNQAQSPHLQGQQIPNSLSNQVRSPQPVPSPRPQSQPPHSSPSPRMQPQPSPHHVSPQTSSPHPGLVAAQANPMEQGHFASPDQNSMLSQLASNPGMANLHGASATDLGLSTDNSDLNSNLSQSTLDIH
T2 sequence (Q92793 whole entry): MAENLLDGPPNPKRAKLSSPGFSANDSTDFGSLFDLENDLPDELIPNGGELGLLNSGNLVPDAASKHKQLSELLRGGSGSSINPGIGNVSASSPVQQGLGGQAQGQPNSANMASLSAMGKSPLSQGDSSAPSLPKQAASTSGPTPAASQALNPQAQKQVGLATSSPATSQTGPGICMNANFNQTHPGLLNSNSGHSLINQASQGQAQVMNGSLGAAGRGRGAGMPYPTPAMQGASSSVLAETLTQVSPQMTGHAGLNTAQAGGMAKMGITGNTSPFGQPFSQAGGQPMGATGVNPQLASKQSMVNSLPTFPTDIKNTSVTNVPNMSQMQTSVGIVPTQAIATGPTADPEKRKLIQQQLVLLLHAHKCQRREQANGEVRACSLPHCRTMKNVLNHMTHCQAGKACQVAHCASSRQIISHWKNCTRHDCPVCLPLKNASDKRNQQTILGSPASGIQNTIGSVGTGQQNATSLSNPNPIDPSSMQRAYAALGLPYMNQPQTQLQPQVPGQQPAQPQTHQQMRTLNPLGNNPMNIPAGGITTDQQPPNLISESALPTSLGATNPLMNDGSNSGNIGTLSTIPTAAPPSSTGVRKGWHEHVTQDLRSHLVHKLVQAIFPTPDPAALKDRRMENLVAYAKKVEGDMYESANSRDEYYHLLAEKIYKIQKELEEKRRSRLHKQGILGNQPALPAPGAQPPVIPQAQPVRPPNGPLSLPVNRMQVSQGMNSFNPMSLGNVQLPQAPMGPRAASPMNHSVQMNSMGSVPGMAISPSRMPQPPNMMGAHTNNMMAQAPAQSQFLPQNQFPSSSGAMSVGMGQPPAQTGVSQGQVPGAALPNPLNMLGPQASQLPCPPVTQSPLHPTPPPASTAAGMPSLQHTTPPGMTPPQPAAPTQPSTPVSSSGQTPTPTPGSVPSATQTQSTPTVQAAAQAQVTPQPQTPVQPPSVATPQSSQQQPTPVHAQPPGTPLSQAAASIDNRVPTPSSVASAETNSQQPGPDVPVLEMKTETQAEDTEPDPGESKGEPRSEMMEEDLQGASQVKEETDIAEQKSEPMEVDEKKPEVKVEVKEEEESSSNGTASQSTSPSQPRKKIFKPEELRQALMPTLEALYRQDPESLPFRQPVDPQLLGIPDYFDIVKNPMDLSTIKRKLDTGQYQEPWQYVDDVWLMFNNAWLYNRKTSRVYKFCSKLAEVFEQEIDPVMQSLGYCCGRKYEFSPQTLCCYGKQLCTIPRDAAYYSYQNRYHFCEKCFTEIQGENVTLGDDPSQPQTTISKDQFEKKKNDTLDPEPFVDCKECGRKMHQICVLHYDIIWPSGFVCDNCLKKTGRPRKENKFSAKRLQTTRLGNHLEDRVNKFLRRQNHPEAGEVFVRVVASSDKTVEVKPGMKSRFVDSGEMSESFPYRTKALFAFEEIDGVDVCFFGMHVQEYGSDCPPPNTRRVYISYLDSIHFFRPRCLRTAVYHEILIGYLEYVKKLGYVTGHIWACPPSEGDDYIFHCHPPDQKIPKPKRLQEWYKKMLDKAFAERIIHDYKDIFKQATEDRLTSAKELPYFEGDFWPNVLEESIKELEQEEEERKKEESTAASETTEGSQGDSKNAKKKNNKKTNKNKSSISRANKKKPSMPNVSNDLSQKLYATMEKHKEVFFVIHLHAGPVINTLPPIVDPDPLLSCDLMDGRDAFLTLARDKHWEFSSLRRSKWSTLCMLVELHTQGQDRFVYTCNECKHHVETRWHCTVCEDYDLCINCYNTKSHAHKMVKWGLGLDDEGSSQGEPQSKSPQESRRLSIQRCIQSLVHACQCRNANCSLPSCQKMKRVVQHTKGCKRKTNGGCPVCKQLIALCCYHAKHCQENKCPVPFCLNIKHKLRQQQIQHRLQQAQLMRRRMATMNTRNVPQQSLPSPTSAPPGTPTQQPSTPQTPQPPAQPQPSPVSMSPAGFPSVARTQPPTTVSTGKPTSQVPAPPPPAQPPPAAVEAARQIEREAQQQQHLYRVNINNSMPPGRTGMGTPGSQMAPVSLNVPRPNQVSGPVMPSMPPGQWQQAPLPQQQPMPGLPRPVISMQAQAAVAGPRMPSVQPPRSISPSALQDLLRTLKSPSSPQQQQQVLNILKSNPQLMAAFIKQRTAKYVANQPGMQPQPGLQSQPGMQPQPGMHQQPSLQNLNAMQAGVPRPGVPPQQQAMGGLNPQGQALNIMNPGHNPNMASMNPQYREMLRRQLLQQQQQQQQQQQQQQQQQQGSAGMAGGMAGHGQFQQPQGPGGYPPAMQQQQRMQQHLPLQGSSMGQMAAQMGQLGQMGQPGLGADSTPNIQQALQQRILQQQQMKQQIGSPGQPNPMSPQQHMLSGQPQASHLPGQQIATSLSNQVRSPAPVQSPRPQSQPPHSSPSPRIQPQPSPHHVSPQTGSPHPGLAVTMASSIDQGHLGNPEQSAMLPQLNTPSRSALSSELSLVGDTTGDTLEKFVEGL

Dmax [1] [%] | DC50 [1] [nM] | DC50 [2] [nM] | Dmax [2] [%] | P300 A549 2 h HiBit DMax (%) [1] | CBP A549 24 h HiBit DMax (%) [2] | Compound
> 80 | 1 to 9.9 | > 1000 | < 20 |  |  | Cc1ccc(-c2ccc3c(c2)n(C)c(=O)n3C)c2cnc(-c3ccc(C(=O)NCC#Cc4ccc5occ(C6CCC(=O)NC6=O)c5c4)nc3)cc12 (stereo not shown) [Example A72, 5-(8-(1,3-dimethyl-2-oxo-2,3-dihydro-1H-benzo[d]imidazol-5-yl)-5-methylisoquinolin-3-yl)-N-(3-(3-(2,6-dioxopiperidin-3-yl)benzofuran-5-yl)prop-2-yn-1-yl)picolinamide]
> 80 | 1 to 9.9 | > 1000 | < 20 |  |  | CC(C)c1cc(C2=CC(C)(C)Oc3cc(-c4ccc(C(=O)NCC#Cc5ccc6occ(C7CCC(=O)NC7=O)c6c5)nc4)ncc32)cc2c1n(C)c(=O)n2C (stereo not shown) [Example A75, N-(3-(3-(2,6-dioxopiperidin-3-yl)benzofuran-5-yl)prop-2-yn-1-yl)-5-(4-(7-isopropyl-1,3-dimethyl-2-oxo-2,3-dihydro-1H-benzo[d]imidazol-5-yl)-2,2-dimethyl-2H-pyrano[3,2-c]pyridin-7-yl)picolinamide]
> 80 | 1 to 9.9 | > 1000 | < 20 |  |  | Cc1cc(-c2ncc3c(n2)CCCN3c2ccc3c(c2)n(C)c(=O)n3C)cnc1C(=O)NCC#Cc1ccc2occ(C3CCC(=O)NC3=O)c2c1 (stereo not shown) [Example A79, 5-(5-(1,3-dimethyl-2-oxo-2,3-dihydro-1H-benzo[d]imidazol-5-yl)-5,6,7,8-tetrahydropyrido[3,2-d]pyrimidin-2-yl)-N-(3-(3-(2,6-dioxo-piperidin-3-yl)benzofuran-5-yl)prop-2-yn-1-yl)-3-methylpicolinamide]
> 80 | 1 to 9.9 | > 1000 | < 20 |  |  | CC(C)c1cc(C2CC(C)(C)Oc3cc(-c4ccc(C(=O)NCC#Cc5ccc6occ(C7CCC(=O)NC7=O)c6c5)nc4)ncc32)cc2c1n(C)c(=O)n2C (stereo not shown) [Example A83, N-(3-(3-(2,6-dioxo-piperidin-3-yl)benzofuran-5-yl)prop-2-yn-1-yl)-5-(4-(7-isopropyl-1,3-dimethyl-2-oxo-2,3-dihydro-1H-benzo [d]imidazol-5-yl)-2,2-dimethyl-3,4-dihydro-2H-pyrano[3,2-c]pyridin-7-yl) picolinamide]
> 80 | 10 to 99 | > 1000 | < 20 |  |  | Cc1cc(-c2ccc3c(c2)n(C)c(=O)n3C)c2cnc(-c3ccc(C(=O)NCC#Cc4ccc5occ(C6CCC(=O)NC6=O)c5c4)nc3)cc2c1 (stereo not shown) [Example A84, 5-(8-(1,3-dimethyl-2-oxo-2,3-dihydro-1H-benzo[d]imidazol-5-yl)-6-methylisoquinolin-3-yl)-N-(3-(3-(2,6-dioxo-piperidin-3-yl)benzofuran-5-yl)prop-2-yn-1-yl) picolinamide]
> 80 | 1 to 9.9 | > 1000 | < 20 |  |  | Cn1c(=O)n(C)c2c(N3CC4CCC(C3)O4)nc(-c3cccc4cc(-c5ccc(C(=O)NCC#Cc6ccc7occ(C8CCC(=O)NC8=O)c7c6)nc5)ncc34)cc21 (stereo not shown) [Example A86, 5-(8-(4-(8-oxa-3-azabicyclo[3.2.1]octan-3-yl)-1,3-dimethyl-2-oxo-2,3-dihydro-1H-imidazo[4,5-c]pyridin-6-yl)isoquinolin-3-yl)-N-(3-(3-(2,6-dioxo-piperidin-3-yl)benzofuran-5-yl)prop-2-yn-1-yl)picolinamide]
> 80 | 1 to 9.9 | > 1000 | < 20 |  |  | Cc1cc(-c2cc3cccc(-c4cc(C)c5c(c4)n(C)c(=O)n5C)c3cn2)cnc1C(=O)NCC#Cc1ccc2occ(C3CCC(=O)NC3=O)c2c1 (stereo not shown) [Example A87, N-(3-(3-(2,6-dioxo-piperidin-3-yl)benzofuran-5-yl)prop-2-yn-1-yl)-3-methyl-5-(8-(1,3,7-trimethyl-2-oxo-2,3-dihydro-1H-benzo [d]imidazol-5-yl)isoquinolin-3-yl)picolinamide]
> 80 | > 1000 | > 1000 | < 20 |  |  | Cc1cc(-c2ncc3c(n2)OCCN3c2cc(C)c3c(c2)n(C)c(=O)n3C)cnc1C(=O)NCC#Cc1ccc2occ(C3CCC(=O)NC3=O)c2c1 (stereo not shown) [Example A88, N-(3-(3-(2,6-dioxo-piperidin-3-yl)benzofuran-5-yl)prop-2-yn-1-yl)-3-methyl-5-(5-(1,3,7-trimethyl-2-oxo-2,3-dihydro-1H-benzo [d]imidazol-5-yl)-6,7-dihydro-5H-pyrimido [4,5-b][1,4]oxazin-2-yl)picolinamide]
> 80 | > 1000 | > 1000 | < 20 |  |  | CC(C)c1cc(N2CCOc3nc(-c4ccc(C(=O)NCC#Cc5ccc6occ(C7CCC(=O)NC7=O)c6c5)nc4)ncc32)cc2c1n(C)c(=O)n2C (stereo not shown) [Example A89, N-(3-(3-(2,6-dioxo-piperidin-3-yl)benzofuran-5-yl)prop-2-yn-1-yl)-5-(5-(7-isopropyl-1,3-dimethyl-2-oxo-2,3-dihydro-1H-benzo[d]imidazol-5-yl)-6,7-dihydro-5H-pyrimido [4,5-b][1,4]oxazin-2-yl)picolinamide]
 | 1 to 9.9 | > 1000 | < 20 | A (“A”: > 80%) |  | Cc1cc(-c2ncc3c(n2)OCCN3c2ccc3c(c2)n(C)c(=O)n3C)cnc1C(=O)NCC#Cc1ccc2occ(C3CCC(=O)NC3=O)c2c1 (stereo not shown) [Example A92, 5-(5-(1,3-dimethyl-2-oxo-2,3-dihydro-1H-benzo[d]imidazol-5-yl)-6,7-dihydro-5H-pyrimido[4,5-b][1,4]oxazin-2-yl)-N-(3-(3-(2,6-dioxopiperidin-3-yl)benzofuran-5-yl)prop-2-yn-1-yl)-3-methylpicolinamide]
 | 10 to 99 | > 1000 |  | D (“D”: 20-39%) | E (“E”: < 20%) | Cc1cc(-c2ncc3c(n2)OCCN3c2ccc3c(c2)n(C)c(=O)n3C)cnc1C(=O)NCC#Cc1ccc2occ(C3CCC(=O)NC3=O)c2c1 (stereo not shown) [Example A93, 5-(5-(1,3-dimethyl-2-oxo-2,3-dihydro-1H-benzo[d]imidazol-5-yl)-6,7-dihydro-5H-pyrimido[4,5-b][1,4]oxazin-2-yl)-N-(3-(3-(2,6-dioxopiperidin-3-yl)benzofuran-5-yl)prop-2-yn-1-yl)-3-methylpicolinamide]
> 80 | 1 to 9.9 | > 1000 | < 20 |  |  | CCN(c1cnc(-c2cnc(C(=O)NCC#Cc3ccc4occ(C5CCC(=O)NC5=O)c4c3)c(C)c2)nc1)c1cc(C2CCOCC2)c2c(c1)n(C)c(=O)n2C (stereo not shown) [Example A95, 5-(5-((1,3-dimethyl-2-oxo-7-(tetrahydro-2H-pyran-4-yl)-2,3-dihydro-1H-benzo [d]imidazol-5-yl)(ethyl)amino)pyrimidin-2-yl)-N-(3-(3-(2,6-dioxopiperidin-3-yl)benzofuran-5-yl)prop-2-yn-1-yl)-3-methylpicolinamide]
> 80 | 1 to 9.9 | > 1000 | < 20 |  |  | Cc1cc(-c2cccc3cc(-c4ccc(C(=O)NCC#Cc5ccc6occ(C7CCC(=O)NC7=O)c6c5)nc4)ncc23)cc2c1n(C)c(=O)n2C (stereo not shown) [Example A96, N-(3-(3-(2,6-dioxo-piperidin-3-yl)benzofuran-5-yl)prop-2-yn-1-yl)-5-(8-(1,3,7-trimethyl-2-oxo-2,3-dihydro-1H-benzo[d]imidazol-5-yl)isoquinolin-3-yl)picolinamide]
